From PMC5884652, “New antimicrobial peptide kills drug-resistant pathogens without detectable resistance” (Oncotarget, 2018)
Ends that are not written are not given here.

Tests used:
E. coli = experiment: Time-kill kinetics; type: cell-based; settings: pH 5.5 and pH 7.4, peptides at their respective MICs
Method: E. coli were grown overnight in LB broth (pH 5.5 or pH 7.4) and diluted to an OD600 of 0.05. CSP-4 was then added so that the final concentration was either the MIC or 1/2 MIC. E. coli cells were then sampled at 1-min intervals for the first 10 min and at 10-min intervals thereafter for 2 h. The cultures were then diluted 50-fold in PBS buffer and plated on LB agar. Colonies were counted after 24 h.

S. aureus LTA = experiment: Peptide-LTA binding affinity assay (dansyl polymyxin B); settings: LTA 9 µg, 2.5 μM dansyl polymyxin B, 5 mM HEPES buffer pH 7.4, peptide 0.4 to 4 μM
Method: Lipoteichoic acid (LTA) and lipopolysaccharide (LPS) binding affinity assays were performed using a Perkin-Elmer LS55 fluorometer (Waltham, MA, USA). S. aureus LTA and E. coli LPS (9 µg) were incubated with 2.5 μM dansyl-polymyxin B in 5 mM HEPES buffer for 5–10 min at pH 7.4. The CSP-4 peptide was added in 0.4 μM increments from 0.4 to 4 μM. The increase in fluorescence intensity was assessed using a spectrofluorometer at an excitation wavelength of 340 nm and an emission wavelength of 482 nm (Perkin-Elmer LS55).

[1] = type: in vivo; settings: 30 min; topical, 200 μg/mL, hairless mouse skin, fluorescence microscopy
Method: Topical delivery of rhodamine-labeled CSP-4 was evaluated on hairless mouse skin. Male hairless mice (6 weeks old) bred by Hoshino Laboratory Animals, Inc. (Bandou-shi, Japan) were purchased from Japan SLC, Inc. (Hamamatsu, Japan). After anesthetizing 5 mice per group (3 groups) with isoflurane, rhodamine-labeled CSP-4 (200 μg/mL) was spread on the hairless mouse skin. The skin was then examined for reactions every 5 min for 30 min. Skin tissue was collected and washed once in PBS, fixed in 4% paraformaldehyde for 12 h, dehydrated in 50% and 100% ethanol (2 h each), and washed 3 times in xylene substitute (1 h/wash). Paraffin-embedded samples were cut into 4 μm-thick sections (Microtome; Thermo Scientific, Waltham, MA, USA) and examined under a fluorescence microscope (IX71; Olympus; Tokyo, Japan).
Supplementary Figure 2: Topical application of rhodamine-labeled CSP-4 to the skin of hairless mouse. Mice were anesthetized with isoflurane and immobilized. Rhodamine-labeled CSP-4 (200 μg/ml) was then applied to the skin in a topical spread.
Diffusion of the peptide into the skin was assessed after 5, 10, 15, 20, 25 and 30 min.
Supplementary Figure 3: Observation of GUVs (PE/PG) with peptides. […] Morphological changes and calcein leakage from the GUVs was monitored. GUVs were examined under an inverted fluorescence phase contrast microscope, and images were recoded using a digital CCD camera. […]

[2] = tested on: TNF-α and IL-1β in RAW 264.7 macrophages; experiment: Pro-inflammatory cytokines in macrophages; type: cell-based, mouse
Method: To examine cytokine expression elicited by S. aureus CCARM 0027, RAW 264.7 mouse macrophages were cultured in DMEM supplemented with antibiotics ([…] penicillin and 100 μg/mL streptomycin) and 10% fetal calf serum in 12-well plates at 37° C in a humidified chamber with an atmosphere containing 5% CO2. Expression of the pro-inflammatory cytokines TNFα and IL-β was evaluated after the addition of S. aureus CCARM 0027 (1 × 10^6 cfu/mL) for 30 min at […]. After treatment, the RAW 264.7 cells (1 × 10^6 cells/mL) were incubated for an additional 24 h with or without CSP-4 (25, 50, 100, and 200 µg/mL). The cells were then collected and the protein was extracted using PRO-PREP™ protein extraction solution (iNtRON Biotechnology, Gyeonggi-do, Korea).
RAW 264.7 cells (1 × 10^6 cells/mL) were seeded into a 12-well plate and incubated for 24 h as described above. […] The levels of pro-inflammatory cytokines in the supernatants were determined after 12 h using mouse anti-TNF-α and anti-IL-1β antibodies based on absorbance at 450 nm using a microplate reader (VERSA Max microplate reader, Molecular Devices). Cytokine concentrations were also determined using TNF-α and IL-1β enzyme-linked immunosorbent assay kits (Koma Biotech, Seoul, Korea). […]

FLRFIGSVKHGKGHLVHHIGVAL-NH2 [CSP-4]
Killing kinetics (E. coli): reduced bacterial growth faster than CSP | Binding to LTA (fluorescence of dansyl polymyxin B) (S. aureus LTA): dose-dependent increase in fluorescence intensity | Depth of penetration into skin [1]: 25–40 μm | TNF-α and IL-1β levels ([2]; RAW 264.7 cells exposed to S. aureus CCARM 0027 (1 × 10^6 cfu/mL), CSP-4 25, 50, 100, and 200 μg/mL, ELISA): significantly decreased | TNF-α and IL-1β levels ([2]; RAW 264.7 cells treated with 1 μg/mL S. aureus LTA, CSP-4 100 µg/mL, immunocytochemistry): reduced TNF-α and IL-1β levels
